Experimental findings from ChEMBL document CHEMBL4376829, “Discovery and biological evaluation of vinylsulfonamide derivatives as highly potent, covalent TEAD autopalmitoylation inhibitors” (Eur J Med Chem, 2019) are described below.

By inhibition is commonly meant the change of the read-out against control, counted positive when it falls. For orientation: ΔTm means the change in melting temperature against a reference sample.

Structures are written as SMILES. The source made the active and inactive calls. The calls are words filed in the database; no cut-off is given here.

Test [1] concerns the target T1, Transcriptional enhancer factor TEF-3 (Homo sapiens, UniProt Q15561). As to the kind of experiment: Inhibition of N-terminal His6 tagged human TEAD4-YBD (217 to 434 residues) expressed in Escherichia coli C43 (DE3) cells assessed as reduction in autopalmitoylation at 200 nM preincubated for 2 hrs followed by palmitoyl alkyne-coenzyme A addition and measured after 30 mins immunoblot analysis relative to control.

Test [2] concerns the target T1, Transcriptional enhancer factor TEF-3. Briefly: Binding affinity to N-terminal His6 tagged human TEAD4-YBD (217 to 434 residues) expressed in Escherichia coli C43 (DE3) cells assessed as covalent modification at Cys367 residue by HPLC-MS/MS analysis.
For test [3], the system named is Transcriptional enhancer factor TEF-3 (Homo sapiens), Q15561 [C335A]. Briefly: Binding affinity to TEAD4-YBD C335A mutant (unknown origin) assessed as change in melting temperature by SYPRO-dye based thermal shift assay.
Test [4] has as its system Transcriptional enhancer factor TEF-3 (Homo sapiens), Q15561 [C410A]. Briefly: Binding affinity to TEAD4-YBD C410A mutant (unknown origin) assessed as change in melting temperature by SYPRO-dye based thermal shift assay.
Test [5] addresses Catenin beta-1 (Homo sapiens) (UniProt P35222). Briefly: Inhibition of beta catenin (unknown origin) expressed in HEK293T cells at 10 to 20 uM by dual-TOPFlash reporter gene assay. The format is cell-based.
Test [6] addresses T1, Transcriptional enhancer factor TEF-3. As to the kind of experiment: Inhibition of human HEK293T cells derived YAP interaction with N-terminal His-tagged human TEAD4 YBD domain (217 to 434 residues) expressed in Escherichia coli C43 (DE3) cells at 25 to 200 uM incubated for 2 hrs with TEAD4 followed by YAP lysate addition and measured after 4 hrs by immunoblotting analysis.

Test [7] shares this target. Briefly: Binding affinity to TEAD4 in human HCT116 cells assessed as increase in soluble form of TEAD4 level at 50 uM preincubated for 4 hrs followed by heating at 51.6 to 64.4 degC for 3 mins by immunoblot-based […]. The format is cell-based. Background: Immunoblotting shows a protein as a band on a membrane.
Test [8] has as its target Serine/threonine-protein kinase STK11 (Homo sapiens) (UniProt Q15831). Briefly: Inhibition of recombinant full-length human LKB1 at 10 uM using LSNLYHQGKFLQTFCGSPLYRRR as substrate measured after 40 mins in presence of [gamm33P]ATP by scintillation counting method relative to control.
In test [9] the target is Vascular endothelial growth factor receptor 2 (Homo sapiens) (UniProt P35968). Briefly: Inhibition of recombinant human KDR (790 to end residues) at 10 uM using myelin basic protein as substrate measured after 40 mins in presence of [gamm33P]ATP by scintillation counting method relative to control.
For test [10], the target named is Ribosomal protein S6 kinase alpha-2 (Homo sapiens) (UniProt Q15349). Briefly: Inhibition of full length recombinant human Rsk3 at 10 uM using KKKNRTLSVA as substrate after 40 mins in presence of [gamma33P]ATP by scintillation counting method relative to control.
For test [11], the species on record is Homo sapiens. Briefly: Inhibition of recombinant human Flt4 V1128L/H1146R mutant (800 to end residues) at 10 uM using GGEEEEYFELVKKKK as substrate measured after 40 mins in presence of [gamma33P]ATP by scintillation counting method relative to control.
The target of test [12] is Serine/threonine-protein kinase pim-2 (Homo sapiens) (UniProt Q9P1W9). As to the kind of experiment: Inhibition of recombinant human PIM2 (2 to end residues) at 10 uM using RSRHSSYPAGT as substrate measured after 40 mins in presence of [gamma33P]ATP by scintillation counting method relative to control.
The target of test [13] is Eukaryotic translation initiation factor 2-alpha kinase 3 (Homo sapiens) (UniProt Q9NZJ5). As to the kind of experiment: Inhibition of recombinant human PEK (536 to end residues) at 10 uM using RSRSRSRSRSRSRSR as substrate measured after 40 mins in presence of [gamma33P]ATP by scintillation counting method relative to control.
Eukaryotic translation initiation factor 2-alpha kinase 3 (Homo sapiens), sequence (Q9NZJ5 whole entry, the tested form may be a part): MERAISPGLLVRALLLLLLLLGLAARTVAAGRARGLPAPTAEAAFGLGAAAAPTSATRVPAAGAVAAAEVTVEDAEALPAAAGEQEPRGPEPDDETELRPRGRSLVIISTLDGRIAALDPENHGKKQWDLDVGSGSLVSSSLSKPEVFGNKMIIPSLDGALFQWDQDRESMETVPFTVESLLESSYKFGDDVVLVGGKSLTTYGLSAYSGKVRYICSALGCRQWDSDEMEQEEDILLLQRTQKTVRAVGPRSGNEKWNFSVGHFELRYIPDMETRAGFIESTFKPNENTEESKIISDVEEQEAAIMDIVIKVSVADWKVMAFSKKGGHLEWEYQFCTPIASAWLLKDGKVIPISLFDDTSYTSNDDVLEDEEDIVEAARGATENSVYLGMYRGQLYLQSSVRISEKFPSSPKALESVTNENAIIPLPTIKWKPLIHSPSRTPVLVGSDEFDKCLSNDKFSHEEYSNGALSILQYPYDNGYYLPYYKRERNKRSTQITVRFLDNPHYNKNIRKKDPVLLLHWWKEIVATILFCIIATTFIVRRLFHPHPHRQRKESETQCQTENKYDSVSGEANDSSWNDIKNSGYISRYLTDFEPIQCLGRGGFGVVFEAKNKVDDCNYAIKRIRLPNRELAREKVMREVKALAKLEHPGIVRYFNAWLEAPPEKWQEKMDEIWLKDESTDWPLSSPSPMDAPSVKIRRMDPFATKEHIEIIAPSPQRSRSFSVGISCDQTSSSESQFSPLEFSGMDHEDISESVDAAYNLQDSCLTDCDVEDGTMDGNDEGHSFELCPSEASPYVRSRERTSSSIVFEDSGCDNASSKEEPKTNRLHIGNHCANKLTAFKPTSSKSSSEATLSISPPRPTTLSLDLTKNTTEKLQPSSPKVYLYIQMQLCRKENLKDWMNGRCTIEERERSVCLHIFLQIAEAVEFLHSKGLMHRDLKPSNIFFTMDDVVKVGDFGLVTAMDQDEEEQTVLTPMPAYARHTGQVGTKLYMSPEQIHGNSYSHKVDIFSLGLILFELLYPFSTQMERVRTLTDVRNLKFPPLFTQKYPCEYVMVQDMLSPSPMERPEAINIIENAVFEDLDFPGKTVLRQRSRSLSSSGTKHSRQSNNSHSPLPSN
Test [14] has as its target Focal adhesion kinase 1 (Homo sapiens) (UniProt Q05397). As to the kind of experiment: Inhibition of recombinant human FAK (411 to 686 residues) at 10 uM using EEEEYEEEEEEYYIIEEEEEEYEEEEEEYYEEEEEEKKKK as substrate measured after 40 mins in presence of [gamma33P]ATP by scintillation counting method relative to control.
In test [15] the target is Serine/threonine-protein kinase Nek1 (Homo sapiens) (UniProt Q96PY6). Briefly: Inhibition of recombinant human NEK1 (1 to 505 residues) at 10 uM using RLGRDKYKTLRQIRQ as substrate measured after 40 mins in presence of [gamma33P]ATP by scintillation counting method relative to control.
Serine/threonine-protein kinase Nek1 (Homo sapiens), sequence (Q96PY6 whole entry, the tested form may be a part): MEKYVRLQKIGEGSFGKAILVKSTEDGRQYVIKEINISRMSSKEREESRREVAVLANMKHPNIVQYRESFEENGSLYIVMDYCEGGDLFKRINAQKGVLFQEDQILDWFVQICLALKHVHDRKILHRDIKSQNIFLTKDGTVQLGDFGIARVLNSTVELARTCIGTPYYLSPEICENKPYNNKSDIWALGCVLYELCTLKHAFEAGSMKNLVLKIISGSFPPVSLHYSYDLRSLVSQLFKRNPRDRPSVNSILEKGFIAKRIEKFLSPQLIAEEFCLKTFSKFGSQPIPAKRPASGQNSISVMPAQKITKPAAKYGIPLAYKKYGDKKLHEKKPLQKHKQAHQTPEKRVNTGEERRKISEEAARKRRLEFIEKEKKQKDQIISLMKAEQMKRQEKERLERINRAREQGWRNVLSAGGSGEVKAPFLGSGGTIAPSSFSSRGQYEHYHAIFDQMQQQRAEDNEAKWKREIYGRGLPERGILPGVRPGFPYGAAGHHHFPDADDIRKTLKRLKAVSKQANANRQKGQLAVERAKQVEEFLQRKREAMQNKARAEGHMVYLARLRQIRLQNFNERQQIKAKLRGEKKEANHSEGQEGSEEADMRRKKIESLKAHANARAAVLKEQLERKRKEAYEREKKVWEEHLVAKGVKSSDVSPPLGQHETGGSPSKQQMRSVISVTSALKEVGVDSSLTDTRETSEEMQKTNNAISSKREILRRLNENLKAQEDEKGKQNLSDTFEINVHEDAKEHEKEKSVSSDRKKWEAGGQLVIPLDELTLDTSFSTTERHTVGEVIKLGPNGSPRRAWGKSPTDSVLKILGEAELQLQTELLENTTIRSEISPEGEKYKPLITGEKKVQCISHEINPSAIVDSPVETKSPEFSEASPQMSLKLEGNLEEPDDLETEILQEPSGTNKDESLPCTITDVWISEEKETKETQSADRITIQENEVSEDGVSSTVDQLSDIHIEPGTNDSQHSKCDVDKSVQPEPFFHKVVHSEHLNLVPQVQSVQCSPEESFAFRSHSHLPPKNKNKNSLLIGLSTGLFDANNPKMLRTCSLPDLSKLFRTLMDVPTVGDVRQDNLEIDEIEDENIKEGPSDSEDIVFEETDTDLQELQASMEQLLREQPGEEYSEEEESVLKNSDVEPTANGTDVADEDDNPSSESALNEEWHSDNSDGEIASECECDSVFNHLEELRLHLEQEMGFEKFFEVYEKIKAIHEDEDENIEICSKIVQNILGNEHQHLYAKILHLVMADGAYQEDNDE
Test [16] concerns the target Mitogen-activated protein kinase kinase kinase 9 (Homo sapiens) (UniProt P80192). Briefly: Inhibition of recombinant human MLK1 (134 to 414 residues) at 10 uM using casein as substrate measured after 40 mins in presence of [gamma33P]ATP by scintillation counting method relative to control.
Test [17] addresses Mitogen-activated protein kinase kinase kinase kinase 4 (Homo sapiens) (UniProt O95819). As to the kind of experiment: Inhibition of recombinant human MAP4K4 (1 to 328 residues) at 10 uM using RLGRDKYKTLRQIRQ as substrate measured after 40 mins in presence of [gamma33P]ATP by scintillation counting method relative to control.
Test [18] addresses Serine/threonine-protein kinase MAK (Homo sapiens) (UniProt P20794). Briefly: Inhibition of recombinant full-length human MAK at 10 uM using RRRFRPASPLRGPPK as substrate measured after 120 mins in presence of [gamma33P]ATP by scintillation counting method relative to control.
In test [19] the target is Leukocyte tyrosine kinase receptor (Homo sapiens) (UniProt P29376). As to the kind of experiment: Inhibition of recombinant human LTK (450 to end residues) at 10 uM using GEEPLYWSFPAKKK as substrate measured after 40 mins in presence of [gamma33P]ATP by scintillation counting method relative to control.
For test [20], the target named is Serine/threonine-protein kinase B-raf (Homo sapiens) (UniProt P15056). As to the kind of experiment: Inhibition of recombinant human BRAF (416 to end residues) at 10 uM using myelin basic protein as substrate after 40 mins in presence of [gamma33P]ATP by scintillation counting method relative to control.
The species named for test [21] is Homo sapiens. Briefly: Inhibition of recombinant full length human Aurora A I31F mutant at 10 uM using LRRASLG as substrate incubated for 40 mins in presence of [gamma-33P]-ATP by scintillation counting method relative to control.
Test [22] has as its target Mitogen-activated protein kinase kinase kinase 5 (Homo sapiens) (UniProt Q99683). As to the kind of experiment: Inhibition of recombinant human ASK1 (649 to 946 residues) at 10 uM using myelin basic protein as substrate measured after 40 mins in presence of [gamma33P]ATP by scintillation counting method relative to control.
The target of test [23] is ALK tyrosine kinase receptor (Homo sapiens) (UniProt Q9UM73). Briefly: Inhibition of recombinant human ALK (1058 to end residues) at 10 uM using KKKSPGEYVNIEF as substrate after 40 mins in presence of [gamma33P]ATP by scintillation counting method relative to control.
Test [24] deals with Serine/threonine-protein kinase VRK1 (Homo sapiens) (UniProt Q99986). Briefly: Inhibition of human VRK1 at 10 uM by radiometric assay relative to control.
Serine/threonine-protein kinase VRK1 (Homo sapiens), sequence (Q99986 whole entry): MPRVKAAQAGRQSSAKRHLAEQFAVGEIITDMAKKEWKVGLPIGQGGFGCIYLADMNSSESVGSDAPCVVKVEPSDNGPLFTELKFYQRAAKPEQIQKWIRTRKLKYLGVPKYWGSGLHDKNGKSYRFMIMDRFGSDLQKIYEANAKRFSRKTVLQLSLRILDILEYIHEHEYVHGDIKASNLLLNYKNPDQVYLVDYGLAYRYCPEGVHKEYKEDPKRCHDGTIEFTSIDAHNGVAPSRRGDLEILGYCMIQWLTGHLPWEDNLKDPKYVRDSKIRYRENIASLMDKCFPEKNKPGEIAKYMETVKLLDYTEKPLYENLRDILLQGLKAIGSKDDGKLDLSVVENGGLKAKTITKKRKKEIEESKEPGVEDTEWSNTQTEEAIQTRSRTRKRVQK

T1 sequence (Q15561 whole entry, the tested form may be a part): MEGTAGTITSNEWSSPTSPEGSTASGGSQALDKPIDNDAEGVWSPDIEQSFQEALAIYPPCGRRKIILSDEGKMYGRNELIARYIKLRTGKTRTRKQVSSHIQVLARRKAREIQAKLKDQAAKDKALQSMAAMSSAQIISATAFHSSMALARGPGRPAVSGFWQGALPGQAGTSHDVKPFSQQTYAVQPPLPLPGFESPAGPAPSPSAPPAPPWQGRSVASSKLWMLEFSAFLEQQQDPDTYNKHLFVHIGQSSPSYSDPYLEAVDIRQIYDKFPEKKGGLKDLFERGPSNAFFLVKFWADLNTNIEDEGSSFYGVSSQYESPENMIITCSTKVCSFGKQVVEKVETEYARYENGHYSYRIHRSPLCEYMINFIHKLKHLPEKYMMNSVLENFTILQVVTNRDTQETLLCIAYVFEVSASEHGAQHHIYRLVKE
Mitogen-activated protein kinase kinase kinase 5 (Homo sapiens), sequence (Q99683 whole entry, the tested form may be a part): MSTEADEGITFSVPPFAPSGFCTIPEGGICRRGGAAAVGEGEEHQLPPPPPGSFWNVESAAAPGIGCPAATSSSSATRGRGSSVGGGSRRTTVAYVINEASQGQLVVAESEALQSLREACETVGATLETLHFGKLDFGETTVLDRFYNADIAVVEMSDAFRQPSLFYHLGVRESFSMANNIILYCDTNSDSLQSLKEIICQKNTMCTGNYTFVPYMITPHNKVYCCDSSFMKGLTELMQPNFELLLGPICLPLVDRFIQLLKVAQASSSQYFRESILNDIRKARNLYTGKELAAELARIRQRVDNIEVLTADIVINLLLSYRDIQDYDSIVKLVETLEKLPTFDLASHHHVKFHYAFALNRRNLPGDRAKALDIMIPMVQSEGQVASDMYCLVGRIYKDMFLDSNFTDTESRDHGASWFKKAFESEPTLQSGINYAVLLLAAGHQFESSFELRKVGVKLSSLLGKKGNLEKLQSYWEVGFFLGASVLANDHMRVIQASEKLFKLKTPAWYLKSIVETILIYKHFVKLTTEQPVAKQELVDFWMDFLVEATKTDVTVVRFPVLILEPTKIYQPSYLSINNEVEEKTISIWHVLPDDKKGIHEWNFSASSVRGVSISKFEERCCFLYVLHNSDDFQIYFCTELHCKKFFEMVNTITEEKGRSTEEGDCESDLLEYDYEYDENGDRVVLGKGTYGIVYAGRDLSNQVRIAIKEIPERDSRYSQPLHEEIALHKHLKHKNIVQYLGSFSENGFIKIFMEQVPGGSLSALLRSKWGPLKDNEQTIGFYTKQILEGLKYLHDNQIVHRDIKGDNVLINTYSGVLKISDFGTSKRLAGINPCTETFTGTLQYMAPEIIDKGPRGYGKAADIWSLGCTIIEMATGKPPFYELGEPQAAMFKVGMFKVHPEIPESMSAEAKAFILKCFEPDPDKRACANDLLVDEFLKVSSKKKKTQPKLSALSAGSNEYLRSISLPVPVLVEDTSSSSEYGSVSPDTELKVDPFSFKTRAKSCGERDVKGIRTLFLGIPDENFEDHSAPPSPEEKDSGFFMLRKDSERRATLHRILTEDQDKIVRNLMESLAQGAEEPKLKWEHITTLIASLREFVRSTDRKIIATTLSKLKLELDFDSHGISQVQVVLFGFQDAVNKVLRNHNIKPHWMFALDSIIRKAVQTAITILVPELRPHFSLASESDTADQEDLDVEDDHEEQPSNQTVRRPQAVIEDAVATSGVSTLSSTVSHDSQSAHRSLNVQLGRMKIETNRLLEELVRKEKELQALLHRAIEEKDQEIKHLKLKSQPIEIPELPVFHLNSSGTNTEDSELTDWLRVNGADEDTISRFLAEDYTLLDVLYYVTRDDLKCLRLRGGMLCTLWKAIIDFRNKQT
Transcriptional enhancer factor TEF-3 (Homo sapiens), Q15561 [C410A], sequence (Q15561 whole entry C410A): as the sequence (Q15561 whole entry, the tested form may be a part) above, with C410A counted along it

In the case of `C=CS(=O)(=O)Nc1ccc(Cc2ccc3ccccc3c2)cc1`, the inhibition was 72.5% in [1]; -3% in [8]; 2% in test [9]; 9% in test [10]; 15% in the test filed under Homo sapiens [11]; 13% in test [12]. Besides, the inhibition was -1% in [13]; -3% in test [14]; -6% in test [15]; 8% in test [16]; 7% in test [17]; -3% in test [18]. The inhibition was 7% in test [19]; -8% in test [20]; -10% in the test listed under Homo sapiens [21]; 13% in test [22]; 0% in [23]; 3% in test [24]. The result in test [2] and in test [7] was Active. For the same compound, the ΔTm in test [3] came out at 5.2 °C; in test [4] it was 7.3 °C. Moreover, the inhibition entry in [5] is “inactive”. In addition, the inhibition result in test [6] was “Active”.
